Assay results reported in paper PMC6858373 (Scientific Reports, 2019).
Where two headings read alike, the source gives them in different places.

Legend:
[1] = target: T1, FGF14:Nav1.6 C-tail complex (Homo sapiens, UniProt Q92915+Q9UQD0); test: Split-luciferase complementation assay (LCA) in Clone V double stable HEK293 cells; format: cell-based; conditions: for Split Luciferase Assay % Lum Set 1 / Split Luciferase Assay %Lum Set 2: normalized to on-plate 0.3% DMSO controls (n=16 per plate); for Split Luciferase Assay %Lum Avg: average of Set 1 and Set 2, normalized to 0.3% DMSO controls
T1 construct: polymerase chain reaction (PCR) amplification of the FGF14 open reading frame (nt 1–855); C-terminal fragment of Nav1.6 (amino acids 1763–1976) fused with CD4ΔC-tail (amino acids 1–395); expressed in transfected cells

[2] = target: full-length P. pyralis luciferase (Photinus pyralis, UniProt P08659, K549A/L550V/N119G/N50D/S548I); format: cell-based
[3] = CC_NCI screening, biological replicate Set 1, normalized to on-plate 0.3% DMSO controls
[4] = CC_NCI screening, biological replicate Set 1
[5] = CC_NCI screening, biological replicate Set 2, normalized to on-plate 0.3% DMSO controls
[6] = CC_NCI screening, biological replicate Set 2
[7] = CC_NCI screening, normalized to on-plate 0.3% DMSO controls
[8] = CC_NCI screening, LCA luminescence, biological replicate Set 1
[9] = CC_NCI screening, LCA luminescence, biological replicate Set 2
[10] = CC_NCI screening, LCA, biological replicate Set 1, normalized to on-plate 0.3% DMSO controls
[11] = CC_NCI screening, LCA, biological replicate Set 2, normalized to on-plate 0.3% DMSO controls
[12] = CC_NCI screening, full-length luciferase counter-screen luminescence, normalized to on-plate 0.3% DMSO controls
[13] = CC_NCI screening, full-length luciferase counter-screen, normalized to on-plate 0.3% DMSO controls

T1 sequence (Q92915 1-252 isoform Q92915-2): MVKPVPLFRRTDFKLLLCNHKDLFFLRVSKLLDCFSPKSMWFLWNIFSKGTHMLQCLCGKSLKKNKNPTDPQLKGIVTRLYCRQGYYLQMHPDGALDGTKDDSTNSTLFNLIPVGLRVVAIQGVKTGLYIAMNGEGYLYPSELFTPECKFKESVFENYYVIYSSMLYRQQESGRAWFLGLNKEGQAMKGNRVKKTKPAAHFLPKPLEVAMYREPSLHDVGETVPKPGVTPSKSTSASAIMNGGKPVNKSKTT
T1 sequence (Q9UQD0 1763-1976 limits assumed): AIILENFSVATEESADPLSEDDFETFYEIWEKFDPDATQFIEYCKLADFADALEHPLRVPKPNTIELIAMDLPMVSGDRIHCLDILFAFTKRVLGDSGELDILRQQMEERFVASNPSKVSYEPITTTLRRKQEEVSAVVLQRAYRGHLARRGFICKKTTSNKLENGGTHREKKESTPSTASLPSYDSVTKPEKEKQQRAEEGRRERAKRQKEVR
full-length P. pyralis luciferase, sequence (P08659 whole entry N50D/N119G/S548I/K549A/L550V, looked up): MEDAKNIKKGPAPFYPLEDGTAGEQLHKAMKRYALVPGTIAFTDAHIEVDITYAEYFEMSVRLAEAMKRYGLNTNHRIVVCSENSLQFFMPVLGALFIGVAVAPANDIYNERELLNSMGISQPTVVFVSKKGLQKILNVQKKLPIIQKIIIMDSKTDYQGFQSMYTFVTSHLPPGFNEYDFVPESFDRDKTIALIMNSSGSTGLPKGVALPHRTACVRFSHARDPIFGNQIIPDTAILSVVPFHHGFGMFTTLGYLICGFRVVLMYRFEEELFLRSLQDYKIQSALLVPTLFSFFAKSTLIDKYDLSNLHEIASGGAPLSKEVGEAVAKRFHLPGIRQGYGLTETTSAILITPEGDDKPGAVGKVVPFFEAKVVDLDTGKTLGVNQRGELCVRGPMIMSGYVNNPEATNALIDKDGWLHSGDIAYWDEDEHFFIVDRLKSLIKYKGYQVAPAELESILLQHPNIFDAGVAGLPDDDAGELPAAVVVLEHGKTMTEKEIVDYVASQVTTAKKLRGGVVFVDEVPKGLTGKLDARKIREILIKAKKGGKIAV

Compound	Split Luciferase Assay % Lum Set 1 [1, 8]	Split Luciferase Assay %Lum Set 2 [1, 9]	Split Luciferase Assay Z-score Set 1 [1, 10]	Split Luciferase Assay Z-score Set 2 [1, 11]	Split Luciferase Assay %Lum Avg ([1]; CC_NCI screening)	Toxicity Assay % Fluor (Clone V cells; human, 16 h, 30 µM)	Toxicity Assay Z-score (Clone V cells; human, 16 h, 30 µM)	Luciferase Assay % Lum [2, 12]	Luciferase Assay Z-score [2, 13]	Toxicity Assay % Fluor (Clone V cells)	Toxicity Assay Z-score (Clone V cells)	further results
COc1cc(N2CCC(N3CCN(C)CC3)CC2)ccc1Nc1ncc(Cl)c(Nc2ccccc2S(=O)(=O)C(C)C)n1 [NVP TAE684]	–	–	–	–	–	–	–	–	–	–	–	Split Luciferase Assay Z-score Set 1 [1, 3]: -7.35; Split Luciferase Assay % Lum Set 1 [1, 4]: 9.02%; Split Luciferase Assay Z-score Set 2 [1, 5]: -7.71; Split Luciferase Assay %Lum Set 2 [1, 6]: 5.20%; Split Luciferase Assay %Lum Avg [1]: 7.11%; Luciferase Assay % Lum (full-length luciferase counter-screen) [2, 7]: 96.39%; Luciferase Assay Z-score (full-length luciferase counter-screen) [2, 7]: -0.46; Toxicity Assay % Fluor (CTB cell viability fluorescence) (Clone V cells): 37.86%; Toxicity Assay Z-score (CTB cell viability) (Clone V cells): -8.69
COc1nc(N)nc2c1ncn2[C@@H]1O[C@H](CO)[C@@H](O)[C@@H]1O [Nelarabine]	129.69%	114.43%	2.40	1.17	122.06%	90.75%	-1.29	–	–	–	–	Luciferase Assay % Lum [2]: 93.91%; Luciferase Assay Z-score [2]: -0.78
Cc1cn(-c2cc(NC(=O)c3ccc(C)c(Nc4nccc(-c5cccnc5)n4)c3)cc(C(F)(F)F)c2)cn1 [Nilotinib]	126.43%	113.39%	2.14	1.09	119.91%	85.20%	-2.07	94.65%	-0.68	–	–	–
O=C(O)C(=O)O.[NH-][C@@H]1CCCC[C@H]1[NH-].[Pt+2] [Oxaliplatin]	115.56%	119.64%	1.26	1.60	117.60%	–	–	102.65%	0.34	90.53%	-1.32	–
CN(C)Cc1c(C(=O)NCCOc2ccc(C(=O)NO)cc2)oc2ccccc12 [PCI-24781]	118.82%	98.83%	1.52	-0.10	108.83%	93.46%	-0.91	91.15%	-1.13	–	–	–
COc1cccc(-c2cc(=O)c3ccccc3o2)c1N [PD 98059]	103.60%	106.11%	0.29	0.50	104.86%	–	–	90.17%	-1.26	88.34%	-1.63	–
COc1cc2ncnc(Nc3cccc(Br)c3)c2cc1OC [PD 153035]	143.82%	121.72%	–	–	132.77%	98.57%	-0.20	–	–	–	–	Split Luciferase Assay Z-score Set 1 [1]: 3.54; Split Luciferase Assay Z-score Set 2 [1]: 1.77; Luciferase Assay % Lum [2]: 83.75%; Luciferase Assay Z-score [2]: -2.08
CC(C)[C@H](NS(=O)(=O)c1ccc(-c2ccc(Br)cc2)cc1)C(=O)O [PD 166793]	–	–	–	–	–	–	–	–	–	–	–	Split Luciferase Assay Z-score Set 1 [1, 3]: 0.38; Split Luciferase Assay % Lum Set 1 [1, 4]: 104.69%; Split Luciferase Assay Z-score Set 2 [1, 5]: -1.11; Split Luciferase Assay %Lum Set 2 [1, 6]: 86.35%; Split Luciferase Assay %Lum Avg [1]: 95.52%; Luciferase Assay % Lum (full-length luciferase counter-screen) [2, 7]: 99.99%; Luciferase Assay Z-score (full-length luciferase counter-screen) [2, 7]: 0.00; Toxicity Assay % Fluor (CTB cell viability fluorescence) (Clone V cells): 105.53%; Toxicity Assay Z-score (CTB cell viability) (Clone V cells): 0.77
Cc1cc(Nc2ncc3cc(-c4c(Cl)cccc4Cl)c(=O)n(C)c3n2)ccc1F [PD 180970]	120.99%	116.51%	1.70	1.34	118.75%	–	–	100.96%	0.12	102.30%	0.32	–
OCCn1cc(-c2cnc3nnn(Cc4ccc5ncccc5c4)c3n2)cn1 [PF-04217903]	90.56%	78.02%	-0.76	-1.79	84.29%	–	–	111.09%	1.42	99.86%	-0.02	–
